According to publication PMC7824571, “Probing the Effects of the FGFR-Inhibitor Derazantinib on Vascular Development in Zebrafish Embryos” (Pharmaceuticals, 2020):
“Also recorded” adds a separate entry of the source.

What was measured:
in vitro = settings: zebrafish, zebrafish embryo homogenate (1:20 in MilliQ water)
[1] = Binding to mouse plasma protein
[2] = tested on: developing vasculature in the zebrafish embryo; assay: Vascular development in zebrafish embryos (confocal / time-lapse imaging of transgenic lines); settings: 0.1–0.3 μM in swimming water
zebrafish embryos = assay: Zebrafish embryo lethality; settings: above a concentration of 1 μM
Protocol: Similarly, DMSO solutions (100 μM) of infigratinib (BGJ398) or vatalanib (PTK/ZK) were diluted in fish water to achieve concentrations of 0.1–0.3 μM. The compounds were added to embryo fish water E3 (5 mM NaCl, 0.17 mM KCl, 0.33 mM CaCl2, 0.33 mM MgSO4, pH 7.0) at 8–10 hpf onwards, before the onset of endothelial cell specification, as previously described.

[3] = %PPB-Mouse (plasma protein binding)

SMILES | fraction unbound at 20 h, 1 μM (in vitro) | fraction unbound ([1]; %Fu-PPB, free unbound) | fraction unbound [1, 3] | Anastomosis [2] | Blood flow [2] | Cell cycle [2] | Cell junctions [2] | ISV sprouting angiogenesis [2] | ISV-Aorta Connections [2] | Lumenization [2] | Blood flow ([2]; listed as Infigratinib) | Cell cycle ([2]; listed as Infigratinib) | ISV sprouting angiogenesis ([2]; listed as Infigratinib) | embryo lethality (zebrafish embryos) | Blood flow ([2]; listed as Vatalanib) | ISV sprouting angiogenesis ([2]; listed as Vatalanib)
CCN1CCN(c2ccc(Nc3cc(N(C)C(=O)Nc4c(Cl)c(OC)cc(OC)c4Cl)ncn3)cc2)CC1 [infigratinib] | 0.0497 ± 0.0082 | 0.013 | 0.013 | Moderate/strong defects | mild impediment of blood flow | inhibited cell cycle progression | Mild defects | did not have any effect | Moderate defects | Mild defects | Mild defects | Moderate defects | No defects |  |  | 
Clc1ccc(Nc2nnc(Cc3ccncc3)c3ccccc23)cc1 [vatalanib] | 0.0995 ± 0.0131 | 0.041 ± 0.0018 | 0.0413 |  |  |  |  | dramatically reduced | No defects | Moderate defects |  |  |  | 80–90% | dramatic defects in blood vessel function; also recorded: Moderate defects | Strong defects
